Measured values from patent US6166290A, “Glutathione-S-conjugate transport in plants” (The Trustees of the University of Pennsylvania, priority 1997, dated 2000).
Where two headings read alike, the source gives them in different places.

Columns and labels:
[1] = test system: endogenous GS-X pump of plant vacuolar membranes; settings: cited from earlier work
DTY167 cells = assay: Growth inhibition of DTY167 (ycf1Δ mutant) cells by CDNB; format: cell-based; settings: Saccharomyces cerevisiae, 24 hours, read-out: diminution of optical density of culture
Protocol: (§1) FIGS. 1A-1B are a series of graphs depicting differential sensitivities of DYT165 cells (wild type, FIG. 1A) and DTY167 cells (ycf1Δ mutant, FIG. 1B) to growth inhibition by 1-chloro-2,4-dinitrobenzene (CDNB). Cells were grown at 30° C. for 24 hours to an OD600 nm of approximately 1.4 in YPD medium before inoculation of aliquots into 15 ml volumes of the same medium containing 0-60 μM CDNB. OD600 nm was measured at the times indicated.
(§2) Two strains of S. cerevisiae were used in these studies: DTY165 (MATα ura3-52 his6 leu2-3,-112 his3-Δ200 trp1-901 lys2-801 suc2-Δ) and the isogenic ycf1Δ mutant strain, DTY167 (MATα ura 3-52 his6 leu2-3,-112 his3-Δ200 trp 1-901 lys2-801 suc2-Δ, ycf1::hisG). The strains were routinely grown in rich (YPD) medium, or, when transformed with plasmid containing functional YCF1 gene, in synthetic complete medium (Sherman et al., 1983, Methods in Yeast Genetics, Cold Spring Harbor Laboratory, New York) or AHC medium (Kim et al., 1994, supra) lacking the appropriate amino acids. Escherichia coli strains XL1-blue (Stratagene) and DH11S were employed for the construction and maintenance of plasmid stocks (Ausubel et al., 1987, Current Protocols in Molecular Biology, Wiley, New York).
(§3) The isogenic wild type strain DTY165 and the ycf1Δ mutant strain, DTY167, were indistinguishable during growth in YPD medium lacking CDNB; both strains grew at the same rate after a brief lag. However, the addition of CDNB to the culture medium caused a greater retardation of the growth of DTY167 cells (FIG. 1B) than DTY165 cells (FIG. 1A). […] The optical densities of the DTY167 cultures were diminished by 65, 82, 85, and 91% by 40, 50, 60, and 70 μM CDNB, respectively, after 24 hours of incubation (FIG. 1B), whereas the corresponding diminutions for the DTY165 cultures were 14, 31, 59, and 92% (FIG. 1A). The increase in sensitivity to CDNB conferred by deletion of the YCF1 gene was similar to that seen with cadmium.

[2] = target: T1, YCF1 (vacuolar membrane vesicles purified from DTY165 cells) (Saccharomyces cerevisiae, UniProt P39109); assay: biochemical; format: biochemical; settings: 24 h, read-out: increase of 109Cd.GS2 uptake into vesicles from pretreated cells
T1 construct: endogenous in cells; host or cells: S. cerevisiae DTY165 (wild type YCF1), vacuolar membrane vesicles
T1 sequence (P39109 whole entry): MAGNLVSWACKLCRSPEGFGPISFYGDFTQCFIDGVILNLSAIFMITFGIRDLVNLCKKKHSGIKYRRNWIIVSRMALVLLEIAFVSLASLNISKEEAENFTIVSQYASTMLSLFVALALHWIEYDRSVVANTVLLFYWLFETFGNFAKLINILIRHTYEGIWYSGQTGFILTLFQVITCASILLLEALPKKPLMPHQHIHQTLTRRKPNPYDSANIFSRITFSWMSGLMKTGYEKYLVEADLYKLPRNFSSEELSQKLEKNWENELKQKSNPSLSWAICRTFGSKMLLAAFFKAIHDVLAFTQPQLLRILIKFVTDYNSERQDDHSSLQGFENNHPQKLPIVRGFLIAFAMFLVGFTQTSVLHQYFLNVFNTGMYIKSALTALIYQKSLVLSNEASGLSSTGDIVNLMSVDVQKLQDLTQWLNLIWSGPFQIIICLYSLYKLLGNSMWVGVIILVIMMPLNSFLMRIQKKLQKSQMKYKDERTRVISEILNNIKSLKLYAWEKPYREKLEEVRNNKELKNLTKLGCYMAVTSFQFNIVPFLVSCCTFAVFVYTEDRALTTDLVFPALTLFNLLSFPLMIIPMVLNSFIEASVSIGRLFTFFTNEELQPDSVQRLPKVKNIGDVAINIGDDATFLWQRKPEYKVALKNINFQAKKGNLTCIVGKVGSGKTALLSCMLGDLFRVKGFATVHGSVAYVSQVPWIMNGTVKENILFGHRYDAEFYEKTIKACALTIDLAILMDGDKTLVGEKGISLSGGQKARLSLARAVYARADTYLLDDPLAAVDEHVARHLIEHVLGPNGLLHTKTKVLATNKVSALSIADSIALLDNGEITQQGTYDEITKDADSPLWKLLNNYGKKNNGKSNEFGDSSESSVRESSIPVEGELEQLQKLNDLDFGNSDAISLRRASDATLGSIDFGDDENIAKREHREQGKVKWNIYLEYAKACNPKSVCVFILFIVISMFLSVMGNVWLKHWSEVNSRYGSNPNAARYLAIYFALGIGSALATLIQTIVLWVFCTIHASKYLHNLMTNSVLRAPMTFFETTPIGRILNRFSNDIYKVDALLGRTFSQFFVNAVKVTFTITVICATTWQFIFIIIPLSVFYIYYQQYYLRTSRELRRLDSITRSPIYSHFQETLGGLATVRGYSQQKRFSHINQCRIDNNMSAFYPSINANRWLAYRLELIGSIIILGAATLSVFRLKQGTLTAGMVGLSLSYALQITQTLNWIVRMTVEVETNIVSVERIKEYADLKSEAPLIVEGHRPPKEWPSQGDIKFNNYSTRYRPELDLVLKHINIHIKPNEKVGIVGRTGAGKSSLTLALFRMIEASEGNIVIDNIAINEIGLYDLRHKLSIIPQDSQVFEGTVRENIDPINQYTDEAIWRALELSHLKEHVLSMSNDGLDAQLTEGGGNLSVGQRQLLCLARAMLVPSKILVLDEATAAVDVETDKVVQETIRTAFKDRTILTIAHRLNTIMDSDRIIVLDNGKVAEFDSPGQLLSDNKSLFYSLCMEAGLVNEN
Protocol: In experiments involving cadmium transport, dithiothreitol and EGTA were removed from the suspension medium to prevent the attenuation of YCF1-dependent Cd^2+ transport otherwise exerted by these compounds. Vesiculated vacuolar membranes were subjected to three cycles of 50-fold dilution into simplified suspension medium (1.1 M glycerol, 5 mM Tris-Mes, pH 8.0), centrifugation at 100,000× g for 35 minutes and resuspension in the same medium before use.
Singly radiolabeled ^109 Cd.GSn and doubly radio-labeled ^109 Cd[^3 H].GS^n complexes were prepared by sequential gel-filtrationand anion-exchange chromatography of the reaction products generated by incubating 20 mM ^109 CdSO4 (78.4 mCi/mmol) with 40 mM GSH or 40 mM [^3 H]GSH (240 mCi/mmol) in 15 ml 10 mM phosphate buffer (pH 8.0) containing 150 mM KNO3 at 45° C. for 24 hours. For gel-filtration, 2 ml aliquots of the reaction mixture were applied to a column (40×1.5 cm ID) packed with water-equilibrated Sephadex G-1 5, eluted with deionized water and ^109 Cd and/or ^3 H in the fractions was measured by liquid scintillation counting. The fractions encompassed by each of the two ^109 Cd.GSn peaks identified were pooled, lyophilized and redissolved in 4 ml of loading buffer (5 mM Tris-Mes, pH 8.0). For anion-exchange chromatography, 0.5 ml aliquots of the resuspended lyophilizates from gel-filtration chromatography were applied to a Mono-Q HR5/5 column (Pharmacia) equilibrated with the same buffer. Elution was with a linear gradient of NaCl (0.5 ml/minute; 0-500 mM) dissolved in loading buffer. The individual fractions corresponding to the major peaks of ^109 Cd obtained from the Mono-Q column (one each for the peaks resolved by gel-filtration chromatography) were pooled, lyophilized and resuspended in 4 ml deionized water after liquid scintillation counting.
MgATP-energized, uncoupler-insensitive ^109 Cd^2+ uptake by vacuolar membrane vesicles was measured at 25° C. in 200 μl reaction volumes containing 3 mM ATP, 3 mM MgSO4, 5 μM gramicidin-D, 10 mM creatine phosphate, 16 units/ml creatine kinase, 50 mM KCl, 400 mM sorbitol, 25 mM Tris-Mes (pH 8.0) and the indicated concentrations of ^109 CdSO4, GSH or ^109 Cd- and/or ^3 H-labeled purified Cd.GSn complexes as described herein except that the wash media contained 100 μM CdSO4 in addition to sorbitol (400 mM) and Tris-Mes (3 mM, pH 8.0).

DTY165 cells = assay: Growth inhibition of DTY165 (wild type) cells by CDNB; format: cell-based; settings: Saccharomyces cerevisiae, 24 hours, read-out: diminution of optical density of culture
Protocol: as §1, §2, §3

[3] = target: T1, YCF1 (vacuolar membrane vesicles purified from DTY165 cells); assay: [3H]DNP-GS uptake by vacuolar membrane vesicles purified from DTY165 cells; format: biochemical; settings: for IC50: 5 μM gramicidin D, read-out: I50 for MgATP-dependent, uncoupler-insensitive DNP-GS uptake
Protocol: (§4) For the routine preparation of vacuolar membrane vesicles, 15 ml of stationary phase cultures of DTY165 or DTY167 were diluted into 1-liter volumes of fresh YPD medium, grown for 24 hours at 30° C. to an OD600 nm of approximately 0.8 and collected by centrifugation. After washing with distilled water, the cells were converted to spheroplasts with Zymolyase 20T (ICN) (Kim et al., 1994, supra) and intact vacuoles were isolated by flotation centrifugation of spheroplast lysates on Ficoll 400 step gradients as described by Roberts et al. (1991, Methods. Enzymol. 194:644-661). Both the spheroplast lysis buffer and Ficoll gradients contained 2 mg/ml bovine serum albumin, 1 μg/ml aprotinin, 1 μg/ml leupeptin, 1 μg/ml pepstatin, and 1 mM PMSF to minimize proteolysis. The resulting vacuole fraction was vesiculated in 5 mM MgCl2, 25 mM KCl, 10 mM Tris-Mes (pH 6.9) containing 2 mg/ml bovine serum albumin, 1 μg/ml aprotinin, 1 μg/ml leupeptin, 1 μg/ml pepstatin, and 1 mM PMSF, pelleted by centrifugation at 37,000× g for 25 min, and resuspended in suspension medium (1.1 M glycerol, 2 mM dithiothreitol, 1 mM Tris-EGTA, 2 mg/ml bovine serum albumin, 1 μg/ml aprotinin, 1 μg/ml leupeptin, 1 μg/ml pepstatin, 1 mM PMSF, 5 mM Tris-Mes, pH 7.6) (Kim et al., 1995, J. Biol. Chem. 270:2630-2635).
(§5) Unless otherwise indicated, [^3 H]DNP-GS uptake was measured at 25° C. in 200 μl reaction volumes containing 3 mM ATP, 3 mM MgSO4, 5 μM gramicidin-D, 10 mM creatine phosphate, 16 units/ml creatine kinase, 50 mM KC 1, 1 mg/ml bovine serum albumin, 400 mM sorbitol, 25 mM Tris-Mes (pH 8.0), and 66.2 μM [^3 H]DNP-GS (8.7 mCi/mmol) (Li et al., 1995, supra). […] Uptake was initiated by the addition of vacuolar membrane vesicles (10-15 μg of membrane protein), brief mixing of the samples on a vortex mixer and uptake was then allowed to proceed for 1-60 minutes. Uptake was terminated by the addition of 1 ml of ice-cold wash medium (400 mM sorbitol, 3 mM Tris-Mes, pH 8.0) and vacuum filtration of the suspension through prewetted Millipore HA cellulose nitrate membrane filters (pore diameter, 0.45 μm). The filters were rinsed twice with 1 ml of ice-cold wash medium and air-dried, and radioactivity was determined by liquid scintillation counting in BCS mixture (Amersham Corp.). Nonenergized [^3 H]DNP-GS uptake and extravesicular solution trapped on the filters were enumerated by the same procedure except that ATP and Mg^2 +were omitted from the uptake medium.

[4] = test system: membrane vesicles purified from pYES3-transformed DTY168 cells; assay: DNP-GS uptake by membrane vesicles from pYES3 (empty vector)-transformed DTY168 cells; format: biochemical, Saccharomyces cerevisiae
Protocol: S. cerevisiae strain DTY168 (MATα his6, leu2-3, -112, ura3-52 ycf1::hisG) was transformed with pYES3-AtMRP1 or empty vector lacking the AtMRP1 insert (pYES3) by the LiOAc/PEG method (Giest et al., 1991, Yeast 7:253-263) and selected for uracil prototrophy by plating on AHC medium containing tryptophan (Kim et al., 1994, supra).
For the preparation of membrane vesicles, 15 ml volumes of stationary phase cultures of the transformants were diluted into 1 L of fresh AHC medium and grown to an OD600 nm of about 1.2. Membrane vesicles were purified as described herein and in Kim et al. (1995, supra).
DNP-GS uptake was measured as described herein in 200 μl reaction volumes containing 3 mM ATP, 3 mM MgSO4, 5 μM gramicidin-D, 10 mM creatine phosphate, 16 units/ml creatine kinase, 50 mM KCl, 1 mg/ml BSA, 400 mM sorbitol, 25 mM Tris-Mes (pH 8.0) and the indicated concentrations of [^3 H]DNP-GS (17.4 mCi/mmol).

[5] = test system: vacuolar GS-X pump (vacuolar membrane vesicles, V. radiata hypocotyls); assay: GS-conjugate uptake by vacuolar membrane vesicles from etiolated hypocotyls of V. radiata; format: biochemical, Vigna radiata
Protocol: Values shown are means ±SE (n=3).
Vacuolar membrane vesicles were purified from etiolated hypocotyls of V. radiata cv.
Unless otherwise indicated, [^3 H]medicarpin or [3H]medicarpin-GS uptake was measured at 25° C. in 200 μl reaction volumes containing 3 mM ATP, 3 mM MgSO4, 10 mM creatine phosphate, 16 U/ml creatine kinase, 50 mM KCl, 0.1% (w/v) BSA, 400 mM sorbitol and 25 mM Tris-Mes buffer, pH 8.0. Uptake was initiated by the addition of 12 μl membrane vesicles (30-40 μg protein) and brief mixing of the samples on a vortex mixer. Uptake was terminated by the addition of 1 ml ice-cold wash medium (400 mM sorbitol, 3 mM Tris-Mes, pH 8.0) and vacuum filtration of the suspension through prewetted HA cellulose nitrate filters (pore diameter 0.45 μm). The filters were rinsed twice with a 1 ml ice-cold wash medium, air-dried and radioactivity was determined by liquid scintillation counting.

[6] = test system: vacuolar GS-X pump (vacuolar membrane vesicles, Z. mays roots); assay: GS-conjugate uptake by vacuolar membrane vesicles from roots of Z. mays; format: biochemical, Zea mays
[7] = test system: vacuolar membrane vesicles purified from DTY167 cells (ycf1Δ mutant); format: biochemical, Saccharomyces cerevisiae; settings: 5 μM gramicidin D
Protocol: as §4, §5

[8] = read-out: I50 for uptake of IAA-GS

CCN1C(=O)CC(SC[C@H](NC(=O)CC[C@H](N)C(=O)O)C(=O)NCC(=O)O)C1=O (stereo partly shown) [glutathione-S-N-ethylmaleimide]
Km ([1]; read-out: Km for transport by endogenous plant vacuolar GS-X pump): 500 µM

O=[N+]([O-])c1ccc(Cl)c([N+](=O)[O-])c1 [CDNB, 1-chloro-2,4-dinitrobenzene]
inhibition of growth at 40 µM (DTY167 cells; 40 μM CDNB): 65% | inhibition of growth at 50 µM (DTY167 cells; 50 μM CDNB): 82% | inhibition of growth at 60 µM (DTY167 cells; 60 μM CDNB): 85% | inhibition of growth at 70 µM (DTY167 cells; 70 μM CDNB): 91% | fold induction at 150 µM [2]: 1.7 | inhibition of growth at 40 µM (DTY165 cells; 40 μM CDNB): 14% | inhibition of growth at 50 µM (DTY165 cells; 50 μM CDNB): 31% | inhibition of growth at 60 µM (DTY165 cells; 60 μM CDNB): 59% | inhibition of growth at 70 µM (DTY165 cells; 70 μM CDNB): 92% | fold induction at 150 µM ([3]; 24 h, read-out: increase of [3H]DNP-GS uptake into vesicles from pretreated cells): 2.8

[O]=[V]([O-])([O-])[O-] [Vanadate]
IC50 ([1]; vanadate, read-out: I50 for inhibition of the endogenous vacuolar GS-X pump of plant cells): 7.5 ± 3.9 µM | sensitivity of DNP-GS uptake to vanadate [4]: insensitive | IC50 ([5]; V. radiata, read-out: I50 for uptake of C3G-GS): 7.9 µM | IC50 [5, 8]: 6.5 µM | inhibition of MgATP-dependent [3H]medicarpin-GS uptake ([5]; vanadate 10 μM, DNP-GS 100 μM, gramicidin D): more than 85% | IC50 ([3]; listed as vanadate): 179 µM | IC50 [3]: 179 µM | IC50 ([6]; read-out: I50 for uptake of ABA-GS): > 150 µM | IC50 ([6]; read-out: I50 for uptake of C3G-GS): 8.2 µM | IC50 [6, 8]: 5.5 µM | I50 for MgATP-dependent, uncoupler-insensitive DNP-GS uptake [7]: Insensitive
